The numbers were not newly measured in patent US20250114332A1 (LABORATORIOS SILANES S.A. DE C.V., priority 2023, published 2025), which cites them from elsewhere.

Where two headings read alike, the source gives them in different places.

The conditions of the data set: drug substance.

For `CC(=O)Nc1ccc(O)cc1` [Acetaminophen, N-(4-hydroxyphenyl) acetamide], the Biopharmaceutical classification entry was “Group III (high solubility and low permeability)”. Further, the Biopharmaceutical classification entry (listed as acetaminophen) is reported as “group III”. For `Cc1ccc(-c2cc(C(F)(F)F)nn2-c2ccc(S(N)(=O)=O)cc2)cc1` [Celecoxib], the Biopharmaceutical classification result was “Belongs to group II (high permeability and low”.
